Source: patent publication US11547681B2, “N-acylethanolamide derivatives and uses thereof” (ELIEM THERAPEUTICS, INC., priority 2016, dated 2023)
Read-outs that look alike come from different tables or passages of the source. One block for each compound: values may come before it.

Experiment: Simulated intestinal fluid (SIF) stability in the presence of various enzymes
Type: in vitro ADME
Conditions: for % Remaining of Initial: n = 1
Outline: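 Test article at 1 μM final was dosed into pre-warmed (37 °C) simulated intestinal fluid, potassium phosphate buffer at pH 6.8, spiked with individual enzymes. Timed samples were held at 4 °C, then centrifuged and quantified against calibration standards in matched matrix.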

[1] = SIF + Carboxypeptidase A, 0 min, 1 μM
[2] = SIF + Carboxypeptidase A, 15 min, 1 μM
[3] = SIF + Carboxypeptidase A, 30 min, 1 μM
[4] = SIF + Carboxypeptidase A, 60 min, 1 μM
[5] = SIF + Carboxypeptidase A, 120 min, 1 μM
[6] = SIF + Carboxypeptidase B, 0 min, 1 μM
[7] = SIF + Carboxypeptidase B, 15 min, 1 μM
[8] = SIF + Carboxypeptidase B, 30 min, 1 μM
[9] = SIF + Carboxypeptidase B, 60 min, 1 μM
[10] = SIF + Carboxypeptidase B, 120 min, 1 μM
[11] = SIF + Chymotrypsin, 0 min, 1 μM
[12] = SIF + Chymotrypsin, 15 min, 1 μM
[13] = SIF + Chymotrypsin, 30 min, 1 μM
[14] = SIF + Chymotrypsin, 60 min, 1 μM
[15] = SIF + Chymotrypsin, 120 min, 1 μM

% Remaining of Initial (n = 1) [1]: 100% | % Remaining of Initial (n = 1) [2]: 77% | % Remaining of Initial (n = 1) [3]: 53% | % Remaining of Initial (n = 1) [4]: 27% | % Remaining of Initial (n = 1) [5]: 37% | % Remaining of Initial (n = 1) [6]: 100% | % Remaining of Initial (n = 1) [7]: 65% | % Remaining of Initial (n = 1) [8]: 31% | % Remaining of Initial (n = 1) [9]: 14% | % Remaining of Initial (n = 1) [10]: 8.7% | % Remaining of Initial (n = 1) [11]: 100% | % Remaining of Initial (n = 1) [12]: 82% | % Remaining of Initial (n = 1) [13]: 67% | % Remaining of Initial (n = 1) [14]: 45% | % Remaining of Initial (n = 1) [15]: 15% | % Remaining of Initial (n = 1) (SIF + Elastase, 0 min, 1 μM): 100% | % Remaining of Initial (n = 1) (SIF + Elastase, 15 min, 1 μM): 41% | % Remaining of Initial (n = 1) (SIF + Elastase, 30 min, 1 μM): 16% | % Remaining of Initial (n = 1) (SIF + Elastase, 60 min, 1 μM): 5.6% | % Remaining of Initial (n = 1) (SIF + Elastase, 120 min, 1 μM): 5.0% | % Remaining of Initial (n = 1) (SIF + Pancreatin, 0 min, 1 μM): 100% | % Remaining of Initial (n = 1) (SIF + Pancreatin, 15 min, 1 μM): 1.3% | % Remaining of Initial (n = 1) (SIF + Pancreatin, 30 min, 1 μM): 3.7% | % Remaining of Initial (n = 1) (SIF + Pancreatin, 60 min, 1 μM): 3.4% | % Remaining of Initial (n = 1) (SIF + Pancreatin, 120 min, 1 μM): <1.0% | % Remaining of Initial (n = 1) (SIF + Trypsin, 0 min, 1 μM): 100% | % Remaining of Initial (n = 1) (SIF + Trypsin, 15 min, 1 μM): 78% | % Remaining of Initial (n = 1) (SIF + Trypsin, 30 min, 1 μM): 70% | % Remaining of Initial (n = 1) (SIF + Trypsin, 60 min, 1 μM): 55% | % Remaining of Initial (n = 1) (SIF + Trypsin, 120 min, 1 μM): <1.0% | half-life at 1 μM (simulated intestinal fluid with carboxypeptidase A, pH 6.8, SIF + Carboxypeptidase A, 1 μM, read-out: Half-life): 47 min | half-life at 1 μM (simulated intestinal fluid with carboxypeptidase B, pH 6.8, SIF + Carboxypeptidase B, 1 μM, read-out: Half-life): 20 min | half-life at 1 μM (simulated intestinal fluid with chymotrypsin, pH 6.8, SIF + Chymotrypsin, 1 μM, read-out: Half-life): 49 min | half-life at 1 μM (simulated intestinal fluid with elastase, pH 6.8, SIF + Elastase, 1 μM, read-out: Half-life): 12 min | half-life at 1 μM (simulated intestinal fluid with pancreatin, pH 6.8, SIF + Pancreatin, 1 μM, outside the sampled time range, read-out: Half-life, calculated (in parentheses)): 2.5 min | half-life at 1 μM (simulated intestinal fluid with pancreatin, pH 6.8, SIF + Pancreatin, 1 μM, read-out: Half-life): < 15 min | half-life at 1 μM (simulated intestinal fluid with trypsin, pH 6.8, SIF + Trypsin, 1 μM, read-out: Half-life): 47 min
SMILES: CCCCC/C=C\C/C=C\CCCCCCCC(=O)OCC(COC(=O)CCC(=O)OCCNC(=O)CCCCCCCCCCCCCCC)OC(=O)CCCCCCC/C=C\C/C=C\CCCCC (stereo not shown) [Compound I-13]

% Remaining of Initial [1]: 100% | % Remaining of Initial [2]: 88% | % Remaining of Initial [3]: 74% | % Remaining of Initial [4]: 60% | % Remaining of Initial [5]: 32% | % Remaining of Initial [6]: 100% | % Remaining of Initial [7]: 94% | % Remaining of Initial [8]: 87% | % Remaining of Initial [9]: 68% | % Remaining of Initial [10]: 37% | % Remaining of Initial [11]: 100% | % Remaining of Initial [12]: 103% | % Remaining of Initial [13]: 90% | % Remaining of Initial [14]: 68% | % Remaining of Initial [15]: 35% | % Remaining of Initial (SIF + Elastase, 0 min, 1 μM): 100% | % Remaining of Initial (SIF + Elastase, 15 min, 1 μM): 72% | % Remaining of Initial (SIF + Elastase, 30 min, 1 μM): 50% | % Remaining of Initial (SIF + Elastase, 60 min, 1 μM): 27% | % Remaining of Initial (SIF + Elastase, 120 min, 1 μM): 7.1% | % Remaining of Initial (SIF + Trypsin, 0 min, 1 μM): 100% | % Remaining of Initial (SIF + Trypsin, 15 min, 1 μM): 89% | % Remaining of Initial (SIF + Trypsin, 30 min, 1 μM): 82% | % Remaining of Initial (SIF + Trypsin, 60 min, 1 μM): 62% | % Remaining of Initial (SIF + Trypsin, 120 min, 1 μM): 37% | half-life at 1 μM (simulated intestinal fluid with carboxypeptidase A, pH 6.8, SIF + Carboxypeptidase A, read-out: Half-life): 75 min | half-life at 1 µM (simulated intestinal fluid with carboxypeptidase B, pH 6.8, SIF + Carboxypeptidase B, read-out: Half-life): 89 min | half-life at 1 μM (simulated intestinal fluid with chymotrypsin, pH 6.8, SIF + Chymotrypsin, read-out: Half-life): 84 min | half-life at 1 μM (simulated intestinal fluid with elastase, pH 6.8, SIF + Elastase, read-out: Half-life): 31 min | half-life at 1 μM (simulated intestinal fluid with trypsin, pH 6.8, SIF + Trypsin, read-out: Half-life): 85 min
SMILES: CCCCCCCCCCCCCCCC(=O)NCCOC(=O)CCC(=O)OC(COC(=O)CCC)COC(=O)CCC [Compound I-16]
